“Also recorded” adds a separate entry of the source.
How the values were obtained:
[1] = tested on: microdissected human scalp HFs; test: Organ culture of microdissected human HFs with CHS: OR2A4/7 expression and HF stem cell/progeny number by quantitative (immuno)histomorphometry; format: cell-based; conditions: 50 μM CHS vs vehicle, 6 days
Description: (§1) Temporal and occipital human scalp skin was obtained from healthy donors (38-69 years old) undergoing routine face-lift surgery. Scalp skin samples were processed for HF microdissection (Edelkamp J, Gherardini J, Bertolini M, Methods to study human hair follicle growth ex vivo: human microdissected hair follicle and human full thickness skin organ culture, Methods Mol. Biol. 2154 (2020) 105-119).
Microdissected human scalp HFs were cultured at 37° C. with 5% CO2 in a minimal media of William's E media (WEM, Gibco, Life Technologies) supplemented with 2 mM of L-glutamine (Gibco), 10 ng/ml hydrocortisone (Sigma-Aldrich), 10 μg/ml insulin (Sigma-Aldrich), and 1% penicillin/streptomycin mix (Gibco) 25,26,62. After microdissection, the HFs were first incubated in WEM for 24 h for re-equilibration.
HFs after quality control (fully pigmented and presence in anagen VI phase) were randomly allocated to the different experimental groups.
After 24 h, WEM mediμm was replaced and HFs were treated with vehicle or 50 μM CHS for 6 days for (immuno) histomorphometry.
OCT-embedded samples were sectioned (6 μm thickness for HF and 7 μm thickness for skin) with a Leica cryostat. Sections obtained from the organ culture were stained using OR2A4/7 and integrin α-6 antibodies. A double-staining, […] wa salso performed. Sections without primary antibody were used as negative control. […]
Staining intensity was evaluated in well-defined reference areas by quantitative (immuno-) histomorphometry (Fischer T W, et al. Differential effects of caffeine on hair shaft elongation, matrix and outer root sheath keratinocyte proliferation, and transforming growth factor-B2/insulin-like growth factor-1-mediated regulation of the hair cycle in male and female human hair follicles in vitro. Br. J. Dermatol. 2014;171:1031-1043. doi: 10.1111/bjd.13114.; Samuelov L, et al. P-cadherin regulates human hair growth and cycling via canonical Wnt signaling and transforming growth factor-62. J. Invest. […]

[2] = tested on: microdissected human scalp HFs; test: Organ culture of microdissected HFs with CHS: hair cycle staging and hair matrix keratinocyte proliferation (Ki-67/TUNEL, Masson Fontana); format: cell-based; conditions: 50 μM CHS vs vehicle, 6 days
Description: as §1, with “105-119). […]” for “105-119).”
OCT-embedded samples were sectioned (6 μm thickness for HF and 7 μm thickness for skin) with a Leica cryostat. […] Images were taken using a Keyence fluorescence microscope BZ9100 (Osaka, Japan) maintaining a constant set exposure time throughout imaging for further analysis.
HFs were microscopically evaluated for the hair cycle staging analysis using Masson-Fontana histochemistry and Ki-67/TUNEL immunostainings (Langan EA, et al. Human hair follicle organ culture: theory, application and perpsectives. Exp. Dermatol. 2015;24:903-911. doi: 10.1111/exd.12836; Kloepper JE, et al. Methods in hair research: how to objectively distinguish between anagen and catagen in human hair follicle organ culture. Exp. Dermatol. 2010;19:305-312. doi: 10.1111/j.1600-0625.2009.00939.x;). […]

OR2A4/7 [3] = test: Intracellular Ca2+ signals in human melanocytes; format: cell-based
OR2A4/7 [4] = conditions: screening approach, Tsai et al. 2017; cited from earlier work

O=C(OC1CCCCC1)c1ccccc1O [CHS, cyclohexyl salicylate]
OR2A4/7 protein expression in the HF bulb ([1]; ex vivo HFs (FIG. 2)): receptor downregulation
K15+ stem cells in the basal layer of the bulge ([1]; ex vivo HFs (FIG. 3a)): did not seem to impact; also recorded: No differences
CD34+ cells in the suprabulbar ORS ([1]; ex vivo HFs (FIG. 3b)): significantly increased
HFs in anagen (hair cycle staging) ([2]; ex vivo HFs (FIG. 4a)): prolongs anagen; also recorded: increase
hair matrix keratinocyte proliferation (Ki-67) ([2]; ex vivo HFs (FIG. 4b)): induces hair matrix keratinocyte proliferation
intracellular Ca2+ signals (OR2A4/7 [3]): elicited transient intracellular Ca2+ signals
agonism at OR2A4/7 (OR2A4/7 [4]): specific agonist

From US20250170150A1, “OLFACTORY RECEPTOR 2A4/7 AGONIST FOR PROMOTING HAIR GROWTH AND IMPROVING AESTHETIC ASPECT” (GIULIANI S.P.A., priority 2022, published 2025)
